Measured values from patent US8518889B2, “Method of treating cancer with antibodies against long-form leukotriene B4 receptor BLT2” (Korea University Research & Business Foundation, priority 2007, dated 2013).

Experiments:
[1] = system: MCF-7 cells; details: LY255283 10 μM, epirubicin 100 ng/ml
[2] = system: human pancreatic cancer cells; details: cited from earlier work

Row | SMILES | DNA fragmentation / cell death [1] | growth and apoptosis of human pancreatic cancer cells [2]
1 | COc1cccc2c1C(=O)c1c(O)c3c(c(O)c1C2=O)C[C@@](O)(C(=O)CO)C[C@@H]3O[C@H]1C[C@H](N)[C@@H](O)[C@H](C)O1 [Epirubicin] | only tiny increase in cell death | 
2 | CCCc1c(OCCCOc2cc(O)c(-c3ccc(F)cc3)cc2CC)cccc1Oc1ccccc1C(=O)O [LY293111] |  | inhibited the growth of and induced apoptosis of
